Source: PMC8952364, “Polyphenols as Inhibitors of Antibiotic Resistant Bacteria—Mechanisms Underlying Rutin Interference with Bacterial Virulence” (Pharmaceuticals, 2022)
Values after ≈ are worked out from the molar mass of the structure shown. Read-outs that look alike come from different tables or passages of the source.

Legend:
[1] = tested on: Methicillin resistant S. aureus IBRS MRSA 011; experiment: Antimicrobial microdilution assay (MIC/MBC); type: cell-based, Staphylococcus aureus; conditions: Staphylococcus aureus, MRSA; for MIC: read-out: MIC; for MBC: subcultivation, 24 h at 37 °C, read-out: MBC
Procedure: (§1) The bacterial suspension (0.5 Mc Farland) was prepared, and twenty-fold dilutions of these suspensions were mixed in a 1:10 ratio with the corresponding polyphenol dilution (0.0039–1 mg/mL). Microtiter plates were incubated at 37 °C for 24 h. The lowest concentrations without visible growth (under a binocular microscope) were defined as MICs. The bactericidal concentrations (MBCs) were determined by serial subcultivation of 2 μL of the well’s content and further incubation for 24 h at 37 °C. Streptomycin (SigmaAldrich, Darmstadt, Germany) was used as a positive control. The polyphenols were obtained from Extrasynthese, Rhone, France (rutin, isoquercitrin) and SigmaAldrich, Germany (hesperetin, hesperidin, naringenin, naringin, taxifolin, morin, chlorogenic acid, ferulic acid, p-coumaric acid, and gallic acid). The stock compounds were prepared in ethanol (30%), and adequate ethanol concentrations were used as the negative control in the assays. Experiments were done in triplicate.

[2] = tested on: P. aeruginosa IBRS P001; experiment: Antimicrobial microdilution assay (MIC/MBC); type: cell-based, Pseudomonas aeruginosa; conditions: Pseudomonas aeruginosa, IBRSP001; for MIC: 37 °C, 24 h, read-out: MIC; for MBC: subcultivation, 24 h at 37 °C, read-out: MBC
Procedure: as §1

[3] = tested on: P. aeruginosa MMA83; experiment: Antimicrobial microdilution assay (MIC/MBC); type: cell-based, Pseudomonas aeruginosa; conditions: Pseudomonas aeruginosa, MMA83; for MIC: 37 °C, 24 h, read-out: MIC; for MBC: subcultivation, 24 h at 37 °C, read-out: MBC
Procedure: as §1

[4] = tested on: E. coli IBRS E003; experiment: Antimicrobial microdilution assay (MIC/MBC); type: cell-based, Escherichia coli; conditions: Escherichia coli, IBRSE003; for MIC: 37 °C, 24 h, read-out: MIC; for MBC: subcultivation, 24 h at 37 °C, read-out: MBC
Procedure: as §1

[5] = tested on: E. coli IMD989; experiment: Antimicrobial microdilution assay (MIC/MBC); type: cell-based, Escherichia coli; conditions: Escherichia coli, IMD989; for MIC: 37 °C, 24 h, read-out: MIC; for MBC: subcultivation, 24 h at 37 °C, read-out: MBC
Procedure: as §1

[6] = tested on: A. baumannii 6077/12; experiment: Antimicrobial microdilution assay (MIC/MBC); type: cell-based, Acinetobacter baumannii; conditions: Acinetobacter baumannii, 6077/12; for MIC: 37 °C, 24 h, read-out: MIC; for MBC: subcultivation, 24 h at 37 °C, read-out: MBC
Procedure: as §1

[7] = tested on: A. baumannii S2/2; experiment: Antimicrobial microdilution assay (MIC/MBC); type: cell-based, Acinetobacter baumannii; conditions: Acinetobacter baumannii, S2/2; for MIC: 37 °C, 24 h, read-out: MIC; for MBC: subcultivation, 24 h at 37 °C, read-out: MBC
Procedure: as §1

[8] = tested on: K. pneumoniae IT977; experiment: Antimicrobial microdilution assay (MIC/MBC); type: cell-based, Klebsiella pneumoniae; conditions: Klebsiella pneumoniae, IT977; for MIC: 37 °C, 24 h, read-out: MIC; for MBC: subcultivation, 24 h at 37 °C, read-out: MBC
Procedure: as §1

[9] = tested on: K. pneumoniae Ni9; experiment: Antimicrobial microdilution assay (MIC/MBC); type: cell-based, Klebsiella pneumoniae; conditions: Klebsiella pneumoniae, NI9; for MIC: 37 °C, 24 h, read-out: MIC; for MBC: subcultivation, 24 h at 37 °C, read-out: MBC
Procedure: as §1

[10] = tested on: A. xylosoxidans 37F; experiment: Antimicrobial microdilution assay (MIC/MBC); type: cell-based, Achromobacter xylosoxidans; conditions: Achromobacter xylosoxidans, 37F; for MIC: 37 °C, 24 h, read-out: MIC; for MBC: subcultivation, 24 h at 37 °C, read-out: MBC
Procedure: as §1

[11] = tested on: S. infantis 1371/1; experiment: Antimicrobial microdilution assay (MIC/MBC); type: cell-based, Salmonella Infantis; conditions: Salmonella enterica, 1371/1; for MIC: 37 °C, 24 h, read-out: MIC; for MBC: subcultivation, 24 h at 37 °C, read-out: MBC
Procedure: as §1

[12] = tested on: HaCaT cells; experiment: Cytotoxicity in HaCaT cell line (crystal violet assay); type: cell-based, human; conditions: Homo sapiens, HaCaT, read-out: IC50 (compound concentration that inhibited 50% of the cell growth)
Procedure: For determination of the polyphenols’ cytotoxic effect, a crystal violet assay was used, with modifications. The cytotoxic effect of polyphenols was analyzed on spontaneously immortalized human skin keratinocytes (HaCaT, AddexBio No. T0020001, San Diego, CA, USA) cell lines. […] Cells (1 × 10^4 cells/well) were seeded in a 96-well plate (Sarstedt, Nümbrecht, Germany) 24 h before treatment. […] Cells were incubated with the compounds for 24 h. […] After crystal violet was removed, the plates were washed in a stream of tap water and left to air-dry at room temperature for 24 h. The absorbance was measured in a microplate reader (Multiskan™ FC Microplate Photometer, Thermo Scientific™) at 590 nm. The results were expressed as IC50 value in μg/mL. The criterion used to categorize the cytotoxic activity polyphenols was as follows: […] All analyses were performed in triplicate; each replicate was also quantified three times. Data were expressed as mean standard deviation, where applicable.

[13] = tested on: MRSA T144; design: method as in PMID 31385700; conditions: cited from earlier work
[14] = tested on: P. aeruginosa IBRS P001 biofilm; experiment: Crystal violet antibiofilm assay (biofilm formation); type: cell-based, Pseudomonas aeruginosa; conditions: MIC and sub-MIC, 24 h, crystal violet, Figure 1
Procedure: After incubation, each well was washed twice with sterile PBS (phosphate-buffered saline, pH 7.4) and fixed with methanol for 10 min. After removal of methanol the plate was air-dried. The biofilm was stained with 0.1% crystal violet (Bio-Merieux, Marcy l’Etoile, France) for 30 min. The plate was washed with water, air dried, and the stain was dissolved with 200 μL of 96% ethanol (Zorka, Sabac, Serbia). The absorbance was read at 620 nm on a Multiskan™ FC microplate photometer (Thermo Scientific™, Waltham, MA, USA). The results are presented as biofilm forming capacity (%) compared to control.

[15] = tested on: eleven antibiotic resistant strains of bacteria; experiment: Antimicrobial assay, summary over the examined strains; type: cell-based; conditions: antibiotic resistant strains of Table 1; read-out: lowest MIC among the examined strains
Procedure: as §1

[16] = tested on: S. aureus Newman and S. aureus Newman Δcoa; design: method as in PMID 32130467; conditions: cited from earlier work
[17] = tested on: S. aureus clinical isolate; design: method as in doi:10.5937/leksir2040057K; conditions: cited from earlier work
[18] = tested on: S. aureus ATCC 11632; design: method as in doi:10.5937/leksir2040057K; conditions: cited from earlier work

| Compound | MIC ([1]; 37 °C, 24 h) | MBC [1] | MIC [2] | MBC [2] | MIC [3] | MBC [3] | MIC [4] | MBC [4] | MIC [5] | MBC [5] | MIC [6] | MBC [6] | MIC [7] | MBC [7] | MIC [8] | MBC [8] | MIC [9] | MBC [9] | MIC [10] | MBC [10] | further results |
| --- | --- | --- | --- | --- | --- | --- | --- | --- | --- | --- | --- | --- | --- | --- | --- | --- | --- | --- | --- | --- | --- |
| O=c1c(O)c(-c2ccc(O)cc2O)oc2cc(O)cc(O)c12 [Morin, morin] | 120 µg/mL (≈ 397 µM) | 250 µg/mL (≈ 827 µM) | 120 µg/mL (≈ 397 µM) | 250 µg/mL (≈ 827 µM) | 1000 µg/mL (≈ 3310 µM) | 1000 µg/mL (≈ 3310 µM) | 250 µg/mL (≈ 827 µM) | 500 µg/mL (≈ 1650 µM) | > 1000 µg/mL | > 1000 µg/mL | 500 µg/mL (≈ 1650 µM) | 500 µg/mL (≈ 1650 µM) | 500 µg/mL (≈ 1650 µM) | 500 µg/mL (≈ 1650 µM) | > 1000 µg/mL | > 1000 µg/mL | 500 µg/mL (≈ 1650 µM) | 1000 µg/mL (≈ 3310 µM) | 500 µg/mL (≈ 1650 µM) | 1000 µg/mL (≈ 3310 µM) | MIC ([1]; restated in the discussion): 125 µg/mL (≈ 414 µM); MIC [11]: > 1000 µg/mL; MBC [11]: > 1000 µg/mL; IC50 ([12]; 24 h treatment, crystal violet): 347 ± 16 µg/mL (≈ 1150 µM); MIC [13]: 32 µg/mL (≈ 106 µM) |
| O=c1c(O[C@@H]2O[C@H](CO)[C@@H](O)[C@H](O)[C@H]2O)c(-c2ccc(O)c(O)c2)oc2cc(O)cc(O)c12 [Isoquercitrin, isoquercitrin] | 500 µg/mL (≈ 1080 µM) | 1000 µg/mL (≈ 2150 µM) | 250 µg/mL (≈ 538 µM) | 500 µg/mL (≈ 1080 µM) | 250 µg/mL (≈ 538 µM) | 250 µg/mL (≈ 538 µM) | > 1000 µg/mL | > 1000 µg/mL | 1000 µg/mL (≈ 2150 µM) | 1000 µg/mL (≈ 2150 µM) | 250 µg/mL (≈ 538 µM) | 500 µg/mL (≈ 1080 µM) | 500 µg/mL (≈ 1080 µM) | 500 µg/mL (≈ 1080 µM) | 1000 µg/mL (≈ 2150 µM) | 1000 µg/mL (≈ 2150 µM) | 500 µg/mL (≈ 1080 µM) | 1000 µg/mL (≈ 2150 µM) | 500 µg/mL (≈ 1080 µM) | 500 µg/mL (≈ 1080 µM) | MIC [11]: 1000 µg/mL (≈ 2150 µM); MBC [11]: 1000 µg/mL (≈ 2150 µM); reduction of biofilm formation (biomass), in words [14]: promising (***, p ≤ 0.001) potential to reduce the biomass; IC50 ([12]; 24 h): > 1000 µg/mL; MIC [15]: 250 µg/mL (≈ 538 µM); MIC (no inhibitory activity up to) [16]: > 1024 µg/mL; MIC [17]: 200 µg/mL (≈ 431 µM); MIC [18]: 100 µg/mL (≈ 215 µM) |
